Test results from ChEMBL document CHEMBL5543126, “Combinatorial Ubiquitination REal-time PROteolysis (CURE-PROs): A Modular Platform for Generating Reversible, Self-Assembling Bifunctional Targeted Degraders” (J Med Chem, 2024).
The source made the active and inactive calls. The rule behind the calls is not given here.

Assays:
Type in all cases: cell-based
[1] = biological target: T1, von Hippel-Lindau disease tumor suppressor/Bromodomain-containing protein 4 (Homo sapiens, UniProt O60885+P40337); assay: (§1) PROTAC activity at BRD4/VHL in human MCF7 cells assessed as induction of BRD4 degradation by measuring residual activity at 100 nM incubated for 24 hrs in presence of VHL based ligand (2S,4R)-1-((S)-2-(2,3-dihydroxybenzamido)-3,3-dimethylbutanoyl)-4-hydroxy-N-(4-(4-methylthiazol-5-yl)benzyl)pyrrolidine-2-carboxamide by Western blot based Combinatorial Ubiquitination Real-time PROteolysis analysis
T1 sequence (P40337 whole entry, looked up, other chains not shown): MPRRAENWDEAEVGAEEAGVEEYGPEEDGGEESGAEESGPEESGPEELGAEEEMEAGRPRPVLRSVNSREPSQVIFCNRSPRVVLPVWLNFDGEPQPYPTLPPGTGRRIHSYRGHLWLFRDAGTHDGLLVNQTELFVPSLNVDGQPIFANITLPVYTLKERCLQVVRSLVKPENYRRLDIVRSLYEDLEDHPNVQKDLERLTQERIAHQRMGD

[2] = biological target: T1, von Hippel-Lindau disease tumor suppressor/Bromodomain-containing protein 4; assay: as §1, with “1 uM” for “100 nM”
[3] = biological target: T2, Protein cereblon/Bromodomain-containing protein 4 (Homo sapiens) (UniProt O60885+Q96SW2); assay: PROTAC activity at BRD4/CRBN in human HeLa cells assessed as induction of BRD4 degradation at 10 uM incubated for 24 hrs in presence of CRBN based ligand N-((2-(2,6-dioxopiperidin-3-yl)-1,3-dioxoisoindolin-4-yl)methyl)-2,3-dihydroxybenzamide by Western blot analysis based Combinatorial Ubiquitination Real-time PROteolysis analysis
T2 sequence (Q96SW2 whole entry, looked up, other chains not shown): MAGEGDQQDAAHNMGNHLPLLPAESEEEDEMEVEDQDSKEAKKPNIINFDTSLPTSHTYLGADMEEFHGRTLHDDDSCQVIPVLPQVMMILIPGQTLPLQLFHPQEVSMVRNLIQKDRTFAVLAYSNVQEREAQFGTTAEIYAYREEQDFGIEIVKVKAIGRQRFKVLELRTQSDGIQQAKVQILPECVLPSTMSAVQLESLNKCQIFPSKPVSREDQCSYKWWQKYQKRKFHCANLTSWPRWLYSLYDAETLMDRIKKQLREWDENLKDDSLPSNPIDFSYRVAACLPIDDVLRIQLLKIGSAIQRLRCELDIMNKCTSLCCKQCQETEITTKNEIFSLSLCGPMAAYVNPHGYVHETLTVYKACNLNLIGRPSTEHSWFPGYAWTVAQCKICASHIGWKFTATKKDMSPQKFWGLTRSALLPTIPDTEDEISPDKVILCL

[4] = biological target: T2, Protein cereblon/Bromodomain-containing protein 4 (Homo sapiens); assay: PROTAC activity at BRD4/CRBN in human HeLa cells assessed as induction of BRD4 degradation at 10 uM incubated for 24 hrs in presence of CRBN based ligand N-((2-(2,6-dioxopiperidin-3-yl)-1,3-dioxoisoindolin-4-yl)methyl)-3,4-dihydroxybenzamide by Western blot analysis based Combinatorial Ubiquitination Real-time PROteolysis analysis
[5] = biological target: T2, Protein cereblon/Bromodomain-containing protein 4 (Homo sapiens); assay: PROTAC activity at BRD4/CRBN in human HeLa cells assessed as induction of BRD4 degradation at 10 uM incubated for 24 hrs in presence of CRBN based ligand (1S,4R,5R,6S)-N-((2-(2,6-dioxopiperidin-3-yl)-1,3-dioxoisoindolin-4-yl)methyl)-5,6-dihydroxybicyclo[2.2.1]heptane-2-carboxamide by Western blot analysis based Combinatorial Ubiquitination Real-time PROteolysis analysis
[6] = biological target: T1, von Hippel-Lindau disease tumor suppressor/Bromodomain-containing protein 4; assay: as §1, with “VHL/BRD4” for “BRD4/VHL”, “HEK293” for “human MCF7”, “degradation rate” for “residual activity”, “1 uM measured every 15 mins” for “100 nM incubated”, “HiBiT” for “Western blot”
[7] = biological target: T1, von Hippel-Lindau disease tumor suppressor/Bromodomain-containing protein 4; assay: as §1, with “activity at 3 uM incubated for” for “activity at 100 nM incubated for”, “presence of 100 nM VHL based” for “presence of VHL based”
[8] = biological target: T1, von Hippel-Lindau disease tumor suppressor/Bromodomain-containing protein 4; assay: as §1, with “300” for “100”
[9] = biological target: T1, von Hippel-Lindau disease tumor suppressor/Bromodomain-containing protein 4; assay: as §1, with “activity at 10 uM incubated for” for “activity at 100 nM incubated for”, “presence of 10 uM VHL based” for “presence of VHL based”
[10] = biological target: T1, von Hippel-Lindau disease tumor suppressor/Bromodomain-containing protein 4; assay: as §1, with “activity at 30 nM incubated” for “activity at 100 nM incubated”, “presence of 3 uM VHL based” for “presence of VHL based”
[11] = biological target: T1, von Hippel-Lindau disease tumor suppressor/Bromodomain-containing protein 4; assay: as §1, with “activity at 30 nM incubated” for “activity at 100 nM incubated”, “presence of 1 uM VHL based” for “presence of VHL based”
[12] = biological target: T1, von Hippel-Lindau disease tumor suppressor/Bromodomain-containing protein 4; assay: as §1, with “presence of 1 uM VHL based” for “presence of VHL based”
[13] = biological target: T1, von Hippel-Lindau disease tumor suppressor/Bromodomain-containing protein 4; assay: (§2) PROTAC activity at BRD4/VHL in human MCF7 cells assessed as induction of BRD4 degradation by measuring residual activity at 100 nM incubated for 24 hrs in presence of 300 nM BRD4 based ligand ((4S)-6-(4-chlorophenyl)-4-(2-(ethylamino)-2-oxoethyl)-1-methyl4Hbenzo[f][1,2,4]triazolo [4,3-a][1,4]diazepin-8-yl)boronic acid by Western blot based Combinatorial Ubiquitination Real-time PROteolysis analysis
[14] = biological target: T1, von Hippel-Lindau disease tumor suppressor/Bromodomain-containing protein 4; assay: as §2, with “VHL/BRD4” for “BRD4/VHL”, “HEK293” for “human MCF7”, “degradation rate” for “residual activity”, “3 uM measured every 15 mins” for “100 nM incubated”, “of” for “of 300 nM”, “HiBiT” for “Western blot”
[15] = biological target: T1, von Hippel-Lindau disease tumor suppressor/Bromodomain-containing protein 4; assay: as §2, with “300” for “100”, “of” for “of 300 nM”
[16] = biological target: T1, von Hippel-Lindau disease tumor suppressor/Bromodomain-containing protein 4; assay: as §2, with “VHL/BRD4” for “BRD4/VHL”, “HEK293” for “human MCF7”, “degradation rate” for “residual activity”, “10 uM measured every 15 mins” for “100 nM incubated”, “of” for “of 300 nM”, “HiBiT” for “Western blot”
[17] = biological target: T1, von Hippel-Lindau disease tumor suppressor/Bromodomain-containing protein 4; assay: as §2, with “VHL/BRD4” for “BRD4/VHL”, “HEK293” for “human MCF7”, “maximal level of degradation” for “residual activity”, “3 uM measured every 15 mins” for “100 nM incubated”, “of” for “of 300 nM”, “HiBiT” for “Western blot”
[18] = biological target: T1, von Hippel-Lindau disease tumor suppressor/Bromodomain-containing protein 4; assay: as §2, with “3 uM” for “300 nM”
[19] = biological target: T1, von Hippel-Lindau disease tumor suppressor/Bromodomain-containing protein 4; assay: as §2, with “30” for “100”, “of” for “of 300 nM”
[20] = biological target: T1, von Hippel-Lindau disease tumor suppressor/Bromodomain-containing protein 4; assay: as §2, with “10 uM” for “100 nM”, “of” for “of 300 nM”
[21] = biological target: T1, von Hippel-Lindau disease tumor suppressor/Bromodomain-containing protein 4; assay: as §2, with “VHL/BRD4” for “BRD4/VHL”, “HEK293” for “human MCF7”, “Tmax” for “residual activity”, “3 uM measured every 15 mins” for “100 nM incubated”, “of” for “of 300 nM”, “HiBiT” for “Western blot”
[22] = biological target: T1, von Hippel-Lindau disease tumor suppressor/Bromodomain-containing protein 4; assay: as §2, with “10 uM” for “100 nM”, “100” for “300”
[23] = biological target: T1, von Hippel-Lindau disease tumor suppressor/Bromodomain-containing protein 4; assay: as §2, with “VHL/BRD4” for “BRD4/VHL”, “HEK293” for “human MCF7”, “maximal level of degradation” for “residual activity”, “0.3 uM measured every 15 mins” for “100 nM incubated”, “of” for “of 300 nM”, “HiBiT” for “Western blot”
[24] = biological target: T1, von Hippel-Lindau disease tumor suppressor/Bromodomain-containing protein 4; assay: as §2, with “3 uM” for “100 nM”, “1 uM” for “300 nM”

## CCNC(=O)C[C@@H]1N=C(c2ccc(Cl)cc2)c2cc(B(O)O)ccc2-n2c(C)nnc21
[1]
  Activity: 89%
[2]
  Activity: 64%
[3]
  Activity: inactive
[4]
  Activity: inactive
[5]
  Activity: inactive
[6]
  Activity: 0.548 h⁻¹
[7]
  Activity: 51%
[8]
  Activity: 100%
[9]
  Activity: 6%
[10]
  Activity: 90%
[11]
  Activity: 96%
[12]
  Activity: 101%

## Cc1ncsc1-c1ccc(CNC(=O)[C@@H]2C[C@@H](O)CN2C(=O)[C@@H](NC(=O)c2cccc(O)c2O)C(C)(C)C)cc1
[13]
  Activity: 77%
[14]
  Activity: 0.908 h⁻¹
[15]
  Activity: 100%
[16]
  Activity: 4.18 h⁻¹
[17]
  Emax: 93%
[18]
  Activity: 74%
[19]
  Activity: 91%
[20]
  Activity: 95%
[21]
  Tmax: 18 h
[22]
  Activity: 55%
[23]
  Emax: 47%
[24]
  Activity: 32%
